This is an account of results in ChEMBL document CHEMBL1201862, “PubChem BioAssay data set” (2004).

Test systems include HCT-116; SF-539; OVCAR-4; CAKI-1; XF498; UACC-62; RXF 393; ACHN; EKVX; HCT-15; SK-OV-3; COLO 205; CCRF-CEM; HT-29; SW-620; DMS-273; DU-145; TK-10; MDA-N; MCF7.
Holding throughout (assay): growth of human tumour cells (NCI), 48 h

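Results reflect a 48-hour exposure of cells in 96-well plates to compound at five concentrations. GI50 is the concentration that inhibits growth by half.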 Active and inactive are the calls of the source. No stated cut-off is given here; in the data, active = GI50 up to about 1.1 µM and inactive = higher. Bounds are passed on as bounds.

With `C[C@@H]1[C@H](c2ccccc2)O[B-]2(c3ccc(Br)cc3)OC(=O)C[N+]12C` (some centres undefined), the GI50 was > 100 µM (inactive) in the assay on HCT-116; > 100 µM (inactive) with SF-539; > 100 µM (inactive) in the assay on OVCAR-4; 53.3 µM (inactive) in the assay on CAKI-1; 97.1 µM (inactive) in the assay with XF498; > 100 µM (inactive) with UACC-62. Further, the GI50 with RXF 393 was 26.5 µM (inactive); in the assay with ACHN, 86.9 µM (inactive); with EKVX, > 100 µM (inactive); in the assay on HCT-15, above 100 µM; with SK-OV-3 it was > 100 µM (inactive); in the assay with COLO 205 it was > 100 µM (inactive). Also, the GI50 with CCRF-CEM, in the assay with HT-29 and with SW-620 was > 100 µM (inactive) each time.
Turning to `CCOC(=O)C1=C(C)N(NC(N)=O)C2(N)N(NC(N)=O)C(C)=C(C(=O)OCC)C12C(=O)OCC` (centres undefined), the GI50 in the assay with HCT-116, in the assay on SF-539, in the assay on OVCAR-4, in the assay on CAKI-1, in the assay on XF498 and in the assay on UACC-62 was > 100 µM (inactive) in each case. Besides, the GI50 is > 100 µM (inactive) with RXF 393; > 100 µM (inactive) in the assay on ACHN; > 100 µM (inactive) in the assay on DMS-273; > 100 µM (inactive) in the assay with EKVX; above 100 µM with HCT-15; > 100 µM (inactive) in the assay on SK-OV-3. Also, the GI50 in the assay on HT-29 and with SW-620 was > 100 µM (inactive) each time.
On to `Cc1c2cc[n+](C)c(C)c2cc2c1[nH]c1ccccc12`, for which the GI50 in the assay on HCT-116 was 16.1 µM (inactive); in the assay with SF-539 it was 2.96 µM (inactive); with OVCAR-4 it was 5.43 µM (inactive); in the assay with CAKI-1 it was 31.3 µM (inactive); in the assay with UACC-62, 11.3 µM (inactive); in the assay with RXF 393 it was 38.7 µM (inactive). Further, the GI50 in the assay on ACHN was 36.3 µM (inactive); in the assay on DU-145, 10.7 µM (inactive); in the assay on DMS-273, 3.63 µM (inactive); in the assay with EKVX, 5.46 µM (inactive); in the assay with TK-10 it was > 89.3 µM (inactive); in the assay on HCT-15, above 100 µM. The GI50 with SK-OV-3 was 12.7 µM (inactive); with COLO 205, 1.57 µM (inactive); in the assay on CCRF-CEM, 6.9 µM (inactive); in the assay on HT-29 it was 10.6 µM (inactive); in the assay with MDA-N, 27.5 µM (inactive); in the assay with SW-620 it was 8.09 µM (inactive). For the same molecule, the GI50 with MCF7 is 5.74 µM (inactive).
Take `C=C1CC2CC(O)CC(C1)C2` (centres undefined): the GI50 in the assay with HCT-116, in the assay on SF-539, in the assay on OVCAR-4, with CAKI-1, in the assay on XF498 and in the assay with UACC-62 was > 100 µM (inactive) throughout. Besides, the GI50 in the assay with RXF 393, in the assay with ACHN, with DMS-273, in the assay with EKVX, with TK-10 and with SK-OV-3 was > 100 µM (inactive) throughout. Also, the GI50 in the assay with COLO 205, in the assay on HT-29 and in the assay with SW-620 was > 100 µM (inactive) in each case.
For `COc1ccc(/C=C2\C(=O)N(C(=O)c3ccc(NC(C)=O)cc3)N=C2C)cc1OC`, the GI50 in the assay on HCT-116, in the assay with SF-539, with OVCAR-4, in the assay with CAKI-1, in the assay on XF498 and in the assay with ACHN was > 100 µM (inactive) throughout. The GI50 is > 100 µM (inactive) with DMS-273; > 100 µM (inactive) in the assay with EKVX; > 100 µM (inactive) with TK-10; above 100 µM with HCT-15; > 100 µM (inactive) with COLO 205; > 100 µM (inactive) in the assay with CCRF-CEM. For the same molecule, the GI50 in the assay with HT-29 and with SW-620 was > 100 µM (inactive) throughout.
As to `O=C(Nc1nnn[nH]1)c1nc(O)cc(-c2ccccc2)n1`, the GI50 in the assay on HCT-116, in the assay with OVCAR-4, with CAKI-1, in the assay on XF498, in the assay with UACC-62 and in the assay on ACHN was > 100 µM (inactive) throughout. For the same molecule, the GI50 with EKVX, in the assay on TK-10, in the assay on SK-OV-3, in the assay on COLO 205, in the assay with CCRF-CEM and with HT-29 was > 100 µM (inactive) in each case. Besides, in the assay on SW-620, the GI50 is > 100 µM (inactive).
`C=CCCCCCCCCC(=O)NS(=O)(=O)c1ccccc1`: the GI50 in the assay with HCT-116 is 93.8 µM (inactive); in the assay with SF-539, > 100 µM (inactive); in the assay on OVCAR-4 it was > 100 µM (inactive); in the assay with CAKI-1, > 100 µM (inactive); in the assay on XF498 it was > 100 µM (inactive); in the assay with UACC-62 it was 53.2 µM (inactive). Besides, the GI50 in the assay with RXF 393 is > 100 µM (inactive); in the assay with ACHN it was 71 µM (inactive); with DMS-273, 88.1 µM (inactive); with EKVX, > 100 µM (inactive); with TK-10, > 100 µM (inactive); in the assay on SK-OV-3, > 100 µM (inactive). The GI50 in the assay with COLO 205, in the assay on HT-29 and in the assay with SW-620 was > 100 µM (inactive) throughout.
Take `O=[N+]([O-])c1nccn1COCCBr`: the GI50 with HCT-116, with SF-539, with OVCAR-4, with CAKI-1, with XF498 and in the assay with UACC-62 was > 100 µM (inactive) in each case. Also, the GI50 with ACHN is > 100 µM (inactive); in the assay on EKVX, > 100 µM (inactive); with TK-10, > 100 µM (inactive); with HCT-15, above 100 µM; with SK-OV-3, > 100 µM (inactive); in the assay on COLO 205, > 10 µM (inactive). In addition, the GI50 in the assay with CCRF-CEM, with HT-29 and in the assay with SW-620 was > 100 µM (inactive) throughout.
As for `COc1ccc(C=O)c([N+](=O)[O-])c1`, the GI50 is 4.09 µM (inactive) in the assay with HCT-116; 20.4 µM (inactive) in the assay on SF-539; 76.6 µM (inactive) in the assay with OVCAR-4; 13.3 µM (inactive) in the assay on XF498; 52.6 µM (inactive) in the assay on UACC-62; > 100 µM (inactive) in the assay on RXF 393. The GI50 was 58.6 µM (inactive) in the assay with ACHN; 25.4 µM (inactive) with DMS-273; 99.5 µM (inactive) in the assay with EKVX; 87.7 µM (inactive) with TK-10; 9.27 µM in the assay on HCT-15; > 100 µM (inactive) with SK-OV-3. Further, the GI50 was 53.3 µM (inactive) in the assay with COLO 205, 4.51 µM (inactive) in the assay with CCRF-CEM, 16.9 µM (inactive) in the assay on HT-29 and 8.24 µM (inactive) in the assay on SW-620.
On to `CC1(CO)OC1COCc1ccccc1` (centres undefined), for which the GI50 in the assay with SF-539, in the assay with XF498, in the assay with UACC-62, with RXF 393, in the assay on ACHN and in the assay with DMS-273 was > 100 µM (inactive) throughout. The GI50 with EKVX was > 100 µM (inactive); in the assay with HCT-15, above 100 µM; in the assay with SK-OV-3, > 100 µM (inactive); in the assay on COLO 205 it was > 100 µM (inactive); in the assay with CCRF-CEM, > 100 µM (inactive); with HT-29 it was > 100 µM (inactive). Moreover, the GI50 in the assay on SW-620 is > 100 µM (inactive).
For the molecule `CC(=O)NNc1nc(C)c(C(=O)NNC(=O)C(=O)Nc2ccc(C)cc2[N+](=O)[O-])s1`, the GI50 with HCT-116, in the assay with SF-539, in the assay on OVCAR-4, in the assay with CAKI-1, in the assay on UACC-62 and with RXF 393 was > 100 µM (inactive) each time. The GI50 in the assay with ACHN is > 100 µM (inactive); in the assay with DMS-273, > 100 µM (inactive); in the assay on EKVX, > 100 µM (inactive); in the assay on TK-10, > 100 µM (inactive); with HCT-15, above 100 µM; with SK-OV-3, > 100 µM (inactive). For the same molecule, the GI50 in the assay on COLO 205 was > 100 µM (inactive); in the assay on CCRF-CEM, 46.1 µM (inactive); with HT-29, > 100 µM (inactive); in the assay with SW-620, > 100 µM (inactive).
On to `C=CCc1cc(-c2cc(CC=C)c(O)c(CN(CC)CC)c2)cc(CN(CC)CC)c1O`, for which the GI50 was 22 µM (inactive) with HCT-116; 21.4 µM (inactive) in the assay with SF-539; > 100 µM (inactive) in the assay on OVCAR-4; 50.2 µM (inactive) in the assay with CAKI-1; 22.2 µM (inactive) with UACC-62; 21.4 µM (inactive) with RXF 393. For the same molecule, the GI50 with ACHN is 80 µM (inactive); in the assay on DU-145, > 100 µM (inactive); in the assay with DMS-273 it was 32.2 µM (inactive); with EKVX it was > 80.9 µM (inactive); in the assay on TK-10, 62.7 µM (inactive); in the assay on HCT-15 it was 15.8 µM. Moreover, the GI50 is > 100 µM (inactive) with SK-OV-3; 26.3 µM (inactive) with COLO 205; 28.6 µM (inactive) with CCRF-CEM; 15.7 µM (inactive) with HT-29; 31.4 µM (inactive) in the assay with MDA-N; 25.5 µM (inactive) with SW-620. The GI50 with MCF7 was 58.5 µM (inactive).
`CCOC(=O)C1S/C(=N/c2ccc(Cl)cc2C)N=C1C` (centres undefined): the GI50 is 15.1 µM (inactive) with HCT-116; 17.6 µM (inactive) in the assay on SF-539; 19.9 µM (inactive) in the assay on OVCAR-4; 20.7 µM (inactive) in the assay on CAKI-1; 20.9 µM (inactive) in the assay on XF498; 14.1 µM (inactive) in the assay on UACC-62. Also, the GI50 in the assay with RXF 393 was 15.3 µM (inactive); with ACHN, 19.8 µM (inactive); with DMS-273, 24.2 µM (inactive); with EKVX, 32.2 µM (inactive); in the assay with TK-10 it was 24.7 µM (inactive); with HCT-15, 18.5 µM. For the same molecule, the results for the GI50 with COLO 205, in the assay on HT-29 and in the assay with SW-620 were 17.1 µM (inactive), 16.1 µM (inactive) and 22.3 µM (inactive), respectively.
